{"source": "paper PMC11484933", "about": "“Active state structures of a bistable visual opsin bound to G proteins” (Nature Communications, 2024)", "key": {"[1]": {"biological_target": "T1, hGi (Gαi1β1γ1 heterotrimer) (Homo sapiens, UniProt P63096)", "T1 construct": "gene GNAI1; human Galphai1 with N-terminal TEV-cleavable deca-His tag from E. coli BL21(DE3); Gbeta1gamma1 from transducin of bovine retinae", "T1 sequence (P63096 2-354)": "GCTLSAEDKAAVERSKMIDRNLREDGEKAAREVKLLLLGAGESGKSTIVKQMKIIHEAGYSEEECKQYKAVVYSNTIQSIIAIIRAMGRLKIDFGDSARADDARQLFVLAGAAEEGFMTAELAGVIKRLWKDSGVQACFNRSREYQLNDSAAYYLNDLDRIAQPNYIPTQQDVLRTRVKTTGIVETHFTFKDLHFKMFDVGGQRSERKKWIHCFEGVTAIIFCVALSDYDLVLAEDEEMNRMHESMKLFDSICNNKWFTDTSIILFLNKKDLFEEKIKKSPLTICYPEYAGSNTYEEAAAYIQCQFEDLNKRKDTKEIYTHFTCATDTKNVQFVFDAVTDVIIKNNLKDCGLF", "T1 sequence (P62871 2-340 partner)": "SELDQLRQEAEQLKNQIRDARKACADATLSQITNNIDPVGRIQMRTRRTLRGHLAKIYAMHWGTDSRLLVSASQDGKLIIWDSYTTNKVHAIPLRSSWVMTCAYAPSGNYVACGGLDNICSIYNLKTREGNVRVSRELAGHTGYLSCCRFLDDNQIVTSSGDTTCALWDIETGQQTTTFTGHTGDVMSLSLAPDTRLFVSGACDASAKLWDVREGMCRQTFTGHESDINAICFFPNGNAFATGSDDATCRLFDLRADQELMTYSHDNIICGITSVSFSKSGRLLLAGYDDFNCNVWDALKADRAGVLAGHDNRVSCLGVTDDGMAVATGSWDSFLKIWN", "T1 sequence (P02698 2-71 partner)": "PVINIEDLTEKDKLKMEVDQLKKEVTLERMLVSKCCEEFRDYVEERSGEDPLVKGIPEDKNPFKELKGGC", "assay": "GTPase-Glo luminescence assay", "format": "biochemical", "settings": "2 uM G protein, 2 uM GTP stock mixed 1:1; 20 C; with and without JSR1-ATR6.11"}, "jsGiq (Gαiqβ1γ2)": {"biological_target": "T2, jsGiq (Gαiqβ1γ2) (Homo sapiens, UniProt P63096, A31R/D193S/L194I/D337C/T340K/V342T/I344L/K345Q/D350E/G352N/F354V)", "T2 construct": "gene GNAI1; heterotrimer from High Five insect cells, His tag removed with HRV 3C", "T2 sequence (P63096 2-354 A31R/D193S/L194I/D337C/T340K/V342T/I344L/K345Q/D350E/G352N/F354V)": "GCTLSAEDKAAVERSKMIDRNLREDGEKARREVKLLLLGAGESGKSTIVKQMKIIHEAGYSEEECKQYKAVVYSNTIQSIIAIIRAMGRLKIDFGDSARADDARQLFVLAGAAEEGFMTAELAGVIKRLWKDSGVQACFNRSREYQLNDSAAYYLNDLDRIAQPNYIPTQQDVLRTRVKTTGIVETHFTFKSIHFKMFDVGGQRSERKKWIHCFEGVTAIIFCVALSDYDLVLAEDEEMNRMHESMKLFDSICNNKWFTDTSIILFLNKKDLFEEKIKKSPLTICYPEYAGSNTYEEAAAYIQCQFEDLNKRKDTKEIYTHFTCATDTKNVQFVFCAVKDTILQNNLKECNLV", "T2 sequence (P62873 2-340 partner)": "as the sequence (P62871 2-340 partner) above", "T2 sequence (P59768 2-68 partner)": "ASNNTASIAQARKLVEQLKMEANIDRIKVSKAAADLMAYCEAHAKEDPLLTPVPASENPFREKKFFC", "assay": "GTPase-Glo luminescence assay", "format": "biochemical", "settings": "2 uM G protein, 2 uM GTP stock mixed 1:1; 20 C; with and without JSR1-ATR6.11"}}}
{"smiles": "Nc1nc2c(ncn2[C@@H]2O[C@H](COP(=O)(O)OP(=O)(O)OP(=O)(O)O)[C@@H](O)[C@H]2O)c(=O)[nH]1", "note": "[GTP]", "values": [{"measurement": "GTP hydrolysis %", "setting": "[1]", "result": "GTPase-Glo assay showing GTP depletion for hGi and jsGiq samples"}, {"measurement": "GTP hydrolysis %", "setting": "jsGiq (Gαiqβ1γ2)", "result": "An in vitro activity assay showed that this chimera retains intrinsic GTPase activity"}]}
